Experimental data from patent publication US20120101032A1, “NOVEL MACROCYCLIC INHIBITORS OF HEPATITIS C VIRUS REPLICATION” (priority 2010, published 2012).
Where two headings read alike, the source gives them in different places.

Experiments:
[1] = system: hepatitis C replicon; assay: hepatitis C replicon EC50 assay; format: cell-based; settings: Hepatitis C virus
Description: NS3-NS4 inhibition activity can be determined using known assay methods.

[2] = molecular target: NS3/NS4 complexes (Hepatitis C virus genotype 1a, UniProt P27958); assay: biochemical
Description: NS3-NS4 inhibition activity can be determined using known assay methods. For example, NS3/NS4 complexes may be formed and inhibitory concentrations of test compounds determined as described in U.S. Patent Application Publication Number 2007/0054842 paragraph numbers 1497-1509, which is incorporated herein by reference in its entirety. Similarly, hepatitis C replicon EC50 may be determined using known assay methods such as described in U.S. Patent Application Publication Number 2007/0054842 paragraph numbers 1510-1515, which is incorporated herein by reference in its entirety. Assays may be conducted at ambient temperature (23° C.) in assay buffer containing 50 mM Tris-HCl, pH 7.5, 15% glycerol, 0.6 mM Lauryldimethylamine Oxide (LDAO), 25 μM NS4A peptide, and 10 mM Dithiothreitol (DTT).

[3] = hepatitis C replicon, read-out: EC50
[4] = NS3-NS4 activity, 23° C., pH 7.5, 25 μM NS4A peptide, read-out: IC50

Chain of NS3/NS4 complexes (P27958 1027-1657, one chain of several): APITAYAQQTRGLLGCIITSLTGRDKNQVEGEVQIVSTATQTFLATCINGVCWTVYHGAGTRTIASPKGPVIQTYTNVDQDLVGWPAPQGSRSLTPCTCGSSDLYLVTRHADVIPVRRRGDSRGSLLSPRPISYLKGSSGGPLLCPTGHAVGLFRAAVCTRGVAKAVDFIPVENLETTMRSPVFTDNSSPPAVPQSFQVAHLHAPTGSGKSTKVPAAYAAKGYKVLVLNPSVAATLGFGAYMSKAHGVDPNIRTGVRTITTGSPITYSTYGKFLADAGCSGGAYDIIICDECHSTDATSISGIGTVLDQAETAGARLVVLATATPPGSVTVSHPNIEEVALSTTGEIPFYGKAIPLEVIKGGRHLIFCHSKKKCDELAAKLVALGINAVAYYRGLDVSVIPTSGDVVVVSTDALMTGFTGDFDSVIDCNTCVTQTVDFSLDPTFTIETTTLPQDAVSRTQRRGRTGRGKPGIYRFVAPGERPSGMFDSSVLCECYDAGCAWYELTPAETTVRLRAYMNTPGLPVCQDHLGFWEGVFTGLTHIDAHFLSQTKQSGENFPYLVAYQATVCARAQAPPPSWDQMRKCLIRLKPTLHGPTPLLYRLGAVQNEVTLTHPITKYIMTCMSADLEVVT

SMILES | EC50 [1, 3] [nM] | IC50 [2, 4] [nM] | EC50 [1] [nM] | IC50 [2] [nM]
CC#CC1(S(=O)(=O)NC(=O)[C@@]23C[C@H]2/C=C\CCCCC[C@H](NC(=O)OC(C)(C)C)C(=O)N2C[C@H](Oc4nc5c(-c6nc(C7CCCCC7)cs6)cccc5n4C(C)C)C[C@H]2C(=O)N3)CC1 [Compound 189] | < 10 | < 10 |  | 
CC(C)n1c(O[C@@H]2C[C@H]3C(=O)N[C@]4(C(=O)NS(=O)(=O)C5(C)CC5)C[C@H]4/C=C\CCCCC[C@H](NC(=O)OC(C)(C)C)C(=O)N3C2)nc2c(-c3nc(Cc4ccc(Cl)cc4)cs3)cccc21 [Compound 122] | > 100 | < 10 |  | 
CC(C)n1c(O[C@@H]2C[C@H]3C(=O)N[C@]4(C(=O)NS(=O)(=O)N(C)C)C[C@H]4/C=C\CCCCC[C@H](NC(=O)OC(C)(C)C)C(=O)N3C2)nc2c(-c3nc(Cc4ccc(-c5ccccc5)cc4)cs3)cccc21 [Compound 154] | 10 to 100 | < 10 |  | 
C#CC1(S(=O)(=O)NC(=O)[C@@]23C[C@H]2/C=C\CCCCC[C@H](NC(=O)OC(C)(C)C)C(=O)N2C[C@H](Oc4nc5c(-c6nc(C7CCCCC7)cs6)cccc5n4C(C)C)C[C@H]2C(=O)N3)CC1 [Compound 188] |  |  | < 10 | < 10
CC(C)n1c(O[C@@H]2C[C@H]3C(=O)N[C@]4(C(=O)NS(=O)(=O)N(C)C)C[C@H]4/C=C\CCCCC[C@H](NC(=O)OC(C)(C)C)C(=O)N3C2)nc2c(-c3nc(Cc4ccc(Cl)cc4)cs3)cccc21 [Compound 151] | < 10 | < 10 |  | 
CC(C)n1c(O[C@@H]2C[C@H]3C(=O)N[C@]4(C(=O)NS(=O)(=O)N(C)C)C[C@H]4/C=C\CCCCC[C@H](NC(=O)OC(C)(C)C)C(=O)N3C2)nc2c(-c3cscn3)cccc21 [Compound 163] | < 10 | < 10 |  | 
CC(C)n1c(O[C@@H]2C[C@H]3C(=O)N[C@]4(C(=O)NS(=O)(=O)N(C)C)C[C@H]4/C=C\CCCCC[C@H](NC(=O)OC(C)(C)C)C(=O)N3C2)nc2c(-c3cncnc3)cccc21 [Compound 161] | < 10 | < 10 |  | 
CC(C)n1c(O[C@@H]2C[C@H]3C(=O)N[C@]4(C(=O)NS(=O)(=O)N(C)C)C[C@H]4/C=C\CCCCC[C@H](NC(=O)OC(C)(C)C)C(=O)N3C2)nc2c(-c3nc(-c4cccc(F)c4)cs3)cccc21 [Compound 133] | 10 to 100 | < 10 |  | 
CC(C)n1c(O[C@@H]2C[C@H]3C(=O)N[C@]4(C(=O)NS(=O)(=O)C5(C)CC5)C[C@H]4/C=C\CCCCC[C@H](NC(=O)OC(C)(C)C)C(=O)N3C2)nc2c(-c3nc(-c4ccc5c(c4)OCCO5)cs3)cccc21 [Compound 112] | < 10 | < 10 |  | 
COc1ccc2c(O[C@@H]3C[C@H]4C(=O)N[C@]5(C(=O)NS(=O)(=O)C6(C)CC6)C[C@H]5/C=C\CCCCC[C@H](NC(=O)OC(C)(C)C)C(=O)N4C3)cc(C(C)C)nc2c1C [Compound 501] | < 10 | < 10 |  | 
CC(C)c1ccc(Cc2csc(-c3cccc4c3nc(O[C@@H]3C[C@H]5C(=O)N[C@]6(C(=O)NS(=O)(=O)C7(C)CC7)C[C@H]6/C=C\CCCCC[C@H](NC(=O)OC(C)(C)C)C(=O)N5C3)n4C(C)C)n2)cc1 [Compound 116] | 10 to 100 | < 10 |  | 
CC(C)(C)OC(=O)N[C@H]1CCCCC/C=C\[C@@H]2C[C@@]2(C(=O)NS(=O)(=O)C2(C)CC2)NC(=O)[C@@H]2C[C@@H](Oc3cc(-c4ccccc4)nc4c3CCCC4)CN2C1=O [Compound 402] |  | < 10 | < 10 | 
CC(C)c1csc(-c2cc(O[C@@H]3C[C@H]4C(=O)N[C@]5(C(=O)NS(=O)(=O)C6(C)CC6)C[C@H]5/C=C\CCCCC[C@H](NC(=O)OC(C)(C)C)C(=O)N4C3)c3c(n2)CCCC3)n1 [Compound 406] | < 10 | < 10 |  | 
COc1cccc(-c2csc(-c3cccc4c3nc(O[C@@H]3C[C@H]5C(=O)N[C@]6(C(=O)NS(=O)(=O)N(C)C)C[C@H]6/C=C\CCCCC[C@H](NC(=O)OC(C)(C)C)C(=O)N5C3)n4C(C)C)n2)c1 [Compound 132] | 10 to 100 | < 10 |  | 
CC(C)n1c(O[C@@H]2C[C@H]3C(=O)N[C@]4(C(=O)NS(=O)(=O)N(C)C)C[C@H]4/C=C\CCCCC[C@H](NC(=O)OC(C)(C)C)C(=O)N3C2)nc2c(-c3nc(-c4ccc(C(C)(C)C)cc4)cs3)cccc21 [Compound 143] | 10 to 100 | < 10 |  | 
CC(C)n1c(O[C@@H]2C[C@H]3C(=O)N[C@]4(C(=O)NS(=O)(=O)C5(C)CC5)C[C@H]4/C=C\CCCCC[C@H](NC(=O)OC(C)(C)C)C(=O)N3C2)nc2c(-c3nc(C4CCN(C)CC4)cs3)cccc21 [Compound 183] | < 10 | < 10 |  | 
COc1ccc(Cc2csc(-c3cccc4c3nc(O[C@@H]3C[C@H]5C(=O)N[C@]6(C(=O)NS(=O)(=O)C7(C)CC7)C[C@H]6/C=C\CCCCC[C@H](NC(=O)OC(C)(C)C)C(=O)N5C3)n4C(C)C)n2)cc1 [Compound 124] | < 10 | < 10 |  | 
